# In patent EP3161491B1, “[…] FOR THE DETECTION OF THE MANIPULATION OF MUSCLE GROWTH IN A DOMESTIC ANIMAL” (Stichting Kwaliteitsgarantie Vleeskalversector, priority 2014, dated 2015):
# Columns and labels:
# [1] = tested on: myostatin pathway biomarkers; conditions: change relative to non-manipulated reference animal
# Protocol: Example 2 was repeated using bovine samples analysed in Example 1.
# Detection Conjugate "CHI-Bovine-IgG" (conjugated antibody: anti-Bovine IgG-heavy and light chain Antibody, Sheep Polyclonal, catalogue number: A10-115; Supplier: Bethyl Laboratories, Inc., USA) was used instead of the mouse conjugate. All other Imperacer conjugates for the additional myostatin pathway biomarkers were prepared using standard methods as described in EP 2189539 ([0106]-[0122]). For the biomarkers p-AKT, p-FOXO, MyOD1, MyoG, FBO32, ALK type 1, Pax3, Myf-5, MuRF1, CDKN1 and CDK2, tissue homogenate instead of serum was used. Table 7: Biomarker analysis
# The additional myostatin pathway biomarkers shown in Table 7 were quantified using immune-PCR.
# [2] = Observation of general health of calves during the 19 weeks treatment period; format: in vivo, Holstein-Friesian calves; conditions: three intramuscular treatments, 19 weeks observation
# Protocol: Calves were randomly assigned into treatment groups.
# All calves were treated with the myostatin propeptide fragment three times with during the observation period. Physical data and samples were collected during the life-time of the calves, such as general health, local reactions, and body weight. Serum samples were collected. Some clinical signs were observed, but they remained within a range that was considered normal for a 19 weeks fattening period. […] The animals were healthy at the time of slaughter and all slaughter samples were collected.
# [3] = tested on: anti-myostatin antibodies
# Protocol: Calves were randomly assigned into treatment groups. Twenty one (21) Holstein-Friesian calves (12 male and 9 female) between 9 - 14 weeks of age were included in the study. […] The control group was only injected with the injection fluids, whereas the second group was treated with the myostatin propeptide fragment. The treatments were administered intramuscularly on day 0, day 35 and day 88 of the treatment. Animals were monitored during 19 weeks from the start of the treatment.
# Myostatin propeptide fragment (SEQ ID NO 1) was dissolved in sterile arachis oil, and mixed with ViteSel, Freund's Adjuvant Incomplete, or Freund's Adjuvant Complete for injection. […] The control group was injected with the same injection fluid, but without the added peptide. […]
# The coated microplate wells were coated with Imperacer® wash buffer "A" using washer-program "block", block against unspecific interaction with "chimera direct block" solution (240 µl/well, 1 min/RT) and with Imperacer® wash buffer "B". After this treatment, the microplate wells were ready for sample incubation. […]
# The wells were subsequently washed with Imperacer® wash buffers "B" and "A". 30 µl/well of ready-to-use Imperacer® PCR-mastermix were added to each well. The wells were sealed using real-time PCR foil, and placed into the Imperacer® reader 50 cycles at 95°C with 12 sec per cycle, at 50°C for 30 sec and at 72°C for 30 sec. […]
sequence,measurement,setting,value
CKMSPINMLYFNGKEQIIYG [myostatin propeptide fragment],(P)-SMAD2/ SMAD 3,[1]; calf sample,-
same,Act IIB,[1]; calf serum,+
same,IgG anti-myostatin antibodies,[1]; calf serum,+
same,Leptin,[1]; calf serum,+
same,Myostatin Propeptide,[1]; calf serum,-
same,(p)-FOxO,[1]; calf tissue homogenate,+
same,ALK type 1,[1]; calf tissue homogenate,-
same,CDK2,[1]; calf tissue homogenate,+
same,CDKN1 A,[1]; calf tissue homogenate,+
same,FBXO32,[1]; calf tissue homogenate,-
same,MuRF1,[1]; calf tissue homogenate,-
same,Myf-5,[1]; calf tissue homogenate,+
same,MyoD1,[1]; calf tissue homogenate,+
same,MyoG,[1]; calf tissue homogenate,+
same,Pax 3,[1]; calf tissue homogenate,+
same,p-AKT,[1]; calf tissue homogenate,+
same,general health of the calves,[2],did not impact the general health of the calves
same,Amount of antibodies measured in sample,"[3]; anti-myostatin IgG in calf blood serum, intramuscular treatment on day 0, day 35 and day 88",382 ng/mL
same,levels of measured anti-myostatin IgG antibodies and treatment,"[3]; blind and open tests, compared to the negative control animals",clear association
